This note sets out measurements from patent US12569502B2, “Use of bile acids and derivatives thereof in preparation of GPR39 agonist” (PEKING UNIVERSITY, priority 2019, dated 2026).

Molecules are shown by their SMILES. Positions count from the first letter of the chain named. Like-named read-outs stand apart in the source and are kept apart here.

Experiment [1] has as its target T1, murine-derived wild-type (WT) GPR39 (Mus musculus, UniProt Q5U431).
T1 construct: 3HA (N); P2A-mCherry (C); expressed in transfected cells; host or cells: HEK293T, transient (Lipofectamine 3000)
T1 sequence (Q5U431 1-456): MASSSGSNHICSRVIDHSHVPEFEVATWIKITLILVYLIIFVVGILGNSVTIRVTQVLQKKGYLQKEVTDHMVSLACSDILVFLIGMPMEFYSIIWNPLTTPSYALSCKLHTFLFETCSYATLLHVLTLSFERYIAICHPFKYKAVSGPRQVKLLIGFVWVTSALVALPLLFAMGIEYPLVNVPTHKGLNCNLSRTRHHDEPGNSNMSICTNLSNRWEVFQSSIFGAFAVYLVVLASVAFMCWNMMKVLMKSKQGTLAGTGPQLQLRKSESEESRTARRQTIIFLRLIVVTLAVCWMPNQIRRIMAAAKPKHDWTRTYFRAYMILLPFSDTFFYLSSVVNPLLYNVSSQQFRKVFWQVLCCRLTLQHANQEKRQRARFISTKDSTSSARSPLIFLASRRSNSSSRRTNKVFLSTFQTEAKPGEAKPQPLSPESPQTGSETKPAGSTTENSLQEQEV
Briefly: Calcium imaging on 293T cells transiently transfected with wild-type GPR39. The class given is cell-based. The following applies: transiently transfected HEK293T cells. Here is the method:
In the present application, the bile acid and/or derivative thereof is capable of activating the GPR39 independent of a zinc ion binding site. For example, in some embodiments, murine-derived wild-type (WT) GPR39 or zinc ion binding site mutant (H17A and H19A) GPR39 are transiently expressed in 293T cells by using lipofectamine3000 transfection kit. The activation effect of LCAS on the wild-type (WT) and mutants (H17A and H19A) is detected by calcium imaging.
HEK293T cells were seeded in a PDL-coated 96-well plate (coring Co.) at an appropriate density (about 3×10^4 cells/well) and cultured under conditions of 37° C. and 5% CO2. 24 h after seeding, when the cell density reached 60%-70%, Lipofectamine 3000 (Invitrogen) was used for transfection, in which the concentration of plasmid transfection was 50 ng per well. […] 2) Zinc ions […] on the activation of mutants H17A and H19A of GPR39 by LCAS.

In experiment [2] the target is T2, GPR39 receptors on m39-20 cell lines (Mus musculus, UniProt Q5U431, T447P).
T2 construct: P2A-mCherry (C); expressed in transfected cells
T2 sequence (Q5U431 1-456 T447P): T1 sequence (Q5U431 1-456) with T447P
In words: FLIPR calcium imaging on m39-20 cell lines stably expressing murine-derived GPR39. The class given is cell-based. To be noted: for intracellular calcium signals in m39-20 cell lines: FIG. 1. An excerpt:
Intracellular calcium imaging is a routine technique to study cell functions, the basic principle of which is to detect the concentration of the calcium ion in tissues or cells using a calcium indicator, thereby reflecting certain reactions in the tissues or cells. In the present application, the intracellular calcium released from a cell line that stably or transiently expresses GPR39 is detected using Fluo8-AM, a calcium fluorescent indicator, so as to determine the activation of the GPR39 receptor by the bile acid and derivative thereof.
HEK293T cells (purchased from ATCC) were seeded in a 6-well plate (coming Co.) at an appropriate density (about 0.5-2×10^5/well). When the cell density reached above 30%, the plasmid PLVXK-mGPR39-P2A-mCherry was transfected with Lipofectamine 3000 (Invitrogen) at a concentration of 2 μg per well. The cells were passaged 24 hours after transfection, the puromycin (gibco) was added into the medium at a concentration of 2 μg/mL for antibiotic screening of cells. After 2-4 days of continuous screening, the cells screened for puromycin resistance were trypsinized and screened by flow cytometry for monoclones with red fluorescence. And these monoclones were seeded in a 96-well plate and cultured in a medium without puromycin for around 10 days. Cell colonies with red fluorescence were sorted under a fluorescence microscope, trypsinized and then passaged and expanded in a 6-well plate. Cell lines m39-20 stably expressing murine-derived GPR39 were obtained through the above methods.
Calcium dye Fluo8-AM (ATT bioquest Co.) was dissolved in DMSO solvent to formulate a stock solution of 1 μg/μL. […] After then, the calcium dye working solution was replaced with the 4K solution (50 μL per well), and acclimated for 5 min at room temperature for the subsequent calcium imaging experiment.
Bile acids and derivatives thereof as listed in Table 1 below were dissolved in dimethyl sulfoxide (DMSO, Sigma Co.) solvent to formulate a stock solution of 50 mM, which was stored at −20° C. During calcium imaging with FLIPR, the drug was diluted with the above 4K solution into a working concentration of 400 μM, and packaged into another 96-well plate. […] The instrument parameters were set so that 50 μL of the drug solution may be added into the culture wells within 2 s. The fluorescence recording result within the first 30 seconds was used as the baseline value. The FLIPR robot arm was programmed to automatically add bile acids and derivatives thereof into the cell sample culture wells at the 31st second. 1% of DMSO solvent was used as the blank control.
After that, the calcium dye working solution was replaced with a 4K solution containing 4 μM zinc ions (50 μL per well), followed by acclimation for 5 min at room temperature.
(Calcium flux is commonly read through the fluorescence of an indicator in the cells.)

As usually defined, the EC50 is the midpoint of the concentration-response curve. For the compound `[Zn+2]` [Zinc ions, reference compound], in experiment [1] (agonist alone), the EC50 turned out to be 12 ± 5.3 µM. Further, the “intracellular calcium signals in m39-20 cell lines” value in experiment [2] is listed as “inducing intracellular calcium signals”.
`C[C@H](CCC(=O)O)[C@H]1CC[C@H]2[C@@H]3CC[C@@H]4C[C@H](OS(=O)(=O)O)CC[C@]4(C)[C@H]3CC[C@]12C` [LCAS]: the concentration for a half-maximal effect (EC50) in experiment [1] (+ 4 μM zinc ions) came to 5.2 ± 0.7 µM; in experiment [1] (agonist alone), 33.1 ± 5.1 µM; in experiment [2] (Bile acid + 4 μM zinc ions EC50, m39-20 cells, 4 μM zinc ions), 0.88 ± 0.16 µM; in experiment [2] (m39-20 cells, no zinc ions, read-out: Only bile acid EC50) it was 41 ± 4.5 µM; in experiment [2] (m39-20 cells, zinc ions 0 μM, read-out: EC50), 31 ± 2.1 µM; in experiment [2] (m39-20 cells, zinc ions 0.05 μM, read-out: EC50), 30.7 ± 2.4 µM. The concentration for a half-maximal effect (EC50) in experiment [2] (m39-20 cells, zinc ions 0.1 μM, read-out: EC50) came out at 30.6 ± 2 µM; in experiment [2] (m39-20 cells, zinc ions 0.2 μM, read-out: EC50), 25.4 ± 1.1 µM; in experiment [2] (m39-20 cells, zinc ions 0.4 μM, read-out: EC50), 20.1 ± 0.67 µM; in experiment [2] (m39-20 cells, zinc ions 1 μM, read-out: EC50), 6.4 ± 0.67 µM; in experiment [2] (m39-20 cells, zinc ions 2 μM, read-out: EC50), 1.9 ± 0.03 µM; in experiment [2] (m39-20 cells, zinc ions 4 μM, read-out: EC50) it was 0.7 ± 0.03 µM. Besides, the “intracellular calcium signals in m39-20 cell lines” value in experiment [2] is “varying extents of intracellular calcium signals”. Further, the “intracellular calcium signaling response in m39-20 cells” value in experiment [2] (absence of zinc ions) is reported as “strong intracellular calcium signaling response”. Moreover, in experiment [2] (activation efficacy, m39-20 cells, no zinc ions), the “Only bile acid Efficacy” value amounted to 111.1 ± 3.9%. The “change of activation efficacy after the addition of zinc ions” value in experiment [2] (m39-20 cells, Table 1, FIG. 2) is “increases slightly”. In addition, in experiment [2] (m39-20 cells, dose curves), the “activation capacity on GPR39 receptors among the bile acids” value is “strongest activation capacity”.
